“Also recorded” adds a separate entry of the source. Where two headings read alike, the source gives them in different places. Marks after values point to notes of the source that are not given here.
What was measured:
[1] = tested on: patients evaluated for sleep disturbances after oral surgery; assay: Study A: single dose after oral surgery, ibuprofen, diphenhydramine and combination vs placebo; type: in vivo, human; conditions: diphenhydramine HCl 50 mg; for Duration of Sleep: 6-point categorical scale 0 (≦5 hours) to 5 (≧9 hours); for Global Evaluation: global evaluation of sleep, 5-point categorical scale; for Cumulative % Asleep at 60 minutes: nurse graded; for Sleep Latency (median): nurse observed, single dose ibuprofen 400 mg; for Time to Rescue (median): nurse recorded; for SPRID3: time-weighted sum of pain relief and pain intensity differences over 0-3 hours
From the text: A single center, inpatient, single dose, randomized (stratified by gender and baseline pain severity), double blind, double dummy, parallel group placebo controlled study was used.
In a double dummy scenario, patients are given multiple dosage forms, one study medication for the group in which they are assigned, and placebos resembling the dosage forms for the other study groups. […] The combination was in a soft gelatin capsule formulation.
The art recognizes that patient-assessed duration of sleep is a very good indicator of the amount of sleep received by the patient. If patients requested rescue medication within an hour of receiving treatment, they were considered protocol violators and removed from the study.
The SPRID3 calculation was as follows. AT 90 minutes, 2 hours, and 3 hours, the patients were woken and asked two questions: how much relief of pain have you had? (no relief=0, a little=1, some=2, a lot=3, complete=4) and what is the severity of your pain? (none=0, mild=1, moderate=2, severe=3). Pain intensity difference (PID) was determined by subtracting the severity of pain score at the time in question to the baseline score measured before treatment. The pain relief rating (PPR) was then added to the PID for a PRID score. The PRID scores were plotted on a graph over time for each patient, and the SPRID3 score was read as the area under the curve for each patient's PRID plot. SPRID3 is a combination measurement of pain relief and pain severity.
In this model, only one hour of phase shifting sleeplessness was induced, compared to three hours in subsequent studies. In other words, patients were required to go to sleep one hour earlier than their bedtime.

[2] = tested on: patients with pain following oral surgery, bedtime 3 hours early; assay: Study B (AE-98-01): ibuprofen/diphenhydramine combination vs ibuprofen alone and placebo after oral surgery; type: in vivo, human
Procedure: This study was conducted in a similar manner to Example 1.
The placebo group also received soft gelatin capsules.
The trial was conducted as a randomized, stratified (by baseline pain and gender), inpatient, placebo controlled, partial factorial, single dose, double blind, parallel group, single center trial. Following oral surgery, patients were kept at the clinic site overnight. Study medications were dispenses when patients experienced pain at a moderate level or greater, and when it was between about 6:30 and 8:00 p.m. (3 hours prior to the patient's usual bedtime). Patients were required to go to sleep after receiving study medication.
The same sleep parameters were used as in Example 1. Additionally, global assessment as a pain reliever was determined. This parameter was a patient-assessed parameter made at the time of rescue medication, if needed, or in the morning, if no rescue medication. Pain relief was assessed on a five-point scale (0=poor, 1=fair, 2=good, 3=very good, 4=excellent). Sleep was monitored by an observer at regular intervals over 3 hours post-dosing. Patients provided pain assessments at 90 and 120 minutes post-dosing. Patients also provided subjective assessments of sleep efficacy, global assessments of sleep and pain the next morning or at the time rescue medication was used.
The following statistical methods were used. All analyses were done using SAS® Version 6.12. Subjective sleep and pain assessments were analyzed by analysis of variance (ANOVA), incorporating effects for treatment, baseline pain severity rating (PSR), and gender in the model. In addition, the interactions of treatment-by-baseline PSR and treatment-by-gender were assessed (at the 0.15 level) in separate models, by adding interaction terms, one at a time, to the initial ANOVA model. The distributions of sleep latency and time to rescue medication were assessed using the Kaplan-Meier estimates, and the variables were analyzed using the Cox proportional hazards regression model with treatment, baseline PSR and gender effects. In addition, the interactions of treatment-by-baseline PSR and treatment-by-gender were assessed (at the 0.15 level) in separate models by adding each interaction term, one at a time, to the initial model.
If each interaction was generally significant (p≦0.15), it was retained in the final model. In the assessment of treatment effects in the presence of interactions, each level of the stratifying variable were to be weighted equally (consistent with the ANOVA models). Ninety-five percent confidence intervals for the median time to sleep and median time to rescue medication were derived. In addition, the actual and cumulative proportion of subjects asleep at each observation time point and the cumulative proportion of subjects who took rescue medication by each observation time point were analyzed by the Cochran-Mantel-Haenszel test controlling for baseline PSR and gender.
In order to protect the Type I error at the 0.05 level, comparisons were tested in sequential order. Each step had to be significant for the subsequent steps to be eligible for significance.
The secondary end points were assessed at the 0.05 level of significance, in the same sequential order.
The primary analysis of efficacy was conducted on the intent-to-treat population, which included all randomized subjects who took the study medication and had at least one post-baseline (sleep and pain) efficacy assessment.

[3] = tested on: subjects with pain following oral surgery, bedtime at least 3 hours early; assay: Study C (AE-98-02): ibuprofen/diphenhydramine combination vs ibuprofen alone after oral surgery; type: in vivo, human
Procedure: This was a randomized stratified (by baseline pain and gender), inpatient, placebo-controlled, partial-factorial, single-dose, double-blind, parallel group, single-center trial. Following oral surgery, subjects were housed and observed at a clinic site overnight. When subjects experienced at least moderate pain and it was between approximately 6:30 PM and 8:00 PM (at least 3 hours earlier than their usual bedtime), they received study medication and were required to go to bed for the evening. Sleep was evaluated by an observer at regular intervals over 3 hours post-dosing. […] Subjects also provided subjective assessments of sleep efficacy as well as global assessments of the study medication as a sleep-aid and as an analgesic the next morning (or at the time rescue medication was used).
The patients were assessed for duration of sleep, cumulative percent of subjects asleep at 60 minutes post-dosing (based on observed sleep latency assessments). they were also assessed for pain using SPRID2 (time-weighted sum of pain relief and pain intensity differences from baseline over 0-2 hours). Sleep latency (observer based), ease of falling asleep, and global evaluation of sleep were also used.
Cumulative percent of subjects asleep by 60 minutes was analyzed by the Cochran-Mantel-Haenszel test controlling for baseline PSR and gender. Subjective sleep and pain assessments were analyzed by analysis of variance (ANOVA), incorporating effects for treatment, baseline pain severity rating (PSR), and gender in the model. The distributions of sleep latency and time to rescue medication were assessed using the Kaplan-Meier estimates, and the variables were analyzed using the Cox proportional hazards (PH) regression model with treatment, baseline PSR, and gender effects. For both ANOVA and PH models, the interactions of treatment-by-baseline PSR and treatment-by-gender were assessed (at the 0.15 level) in separate models by adding each interaction term, one at a time, to the initial model. If each interaction was generally significant (p≦0.15), it was retained in the final model. In the assessment of treatment effects in the presence of interactions, each level of the stratifying variable was to be weighted equally.
In order to protect the Type I error at the 0.05 level, comparisons were tested in sequential order for the primary as well as the secondary efficacy endpoints. Each step had to be significant for the subsequent steps to be eligible for significance. […] The secondary end points were assessed, at the 0.05 level of significance, in a similar sequential order. The primary analysis of efficacy was based on the intent-to-treat (ITT) population, which included all randomized subjects who took study medication and had at least one post-baseline (sleep and pain) efficacy assessment.

[4] = tested on: subjects of the partial factorial studies (pain after oral surgery); assay: Pooled data of studies AE-98-01/02; type: in vivo, human; conditions: for % who required remed.: Pooled Studies AE-98-01/02
From the text: Data from two of the studies were pooled together. Some of the most significant study data are presented in Table 7, with graphical representations of the data in FIGS. 28-29.

[5] = tested on: normal sleep patterns in humans; conditions: cited from earlier work
[6] = oral administration, cited from earlier work
[7] = Interaction and stability testing of ibuprofen and diphenhydramine in one composition; type: physicochemical; conditions: dissolution, appearance, potency
From the text: An ion pair or salt could, thus, be formed. Such an interaction creates a more nonpolar composition, which may have different dissolution characteristics and absorption profile in the body. Such changes in a pharmaceutical composition may be highly undesirable, due to unpredictability of effect.

[8] = Study B, 5-point scale 0=poor to 4=excellent, IBU 400 mg, DPH 50 mg
[9] = Study C, 5-point scale 0=poor to 4=excellent, IBU 400 mg, DPH 50 mg

CC(C)Cc1ccc(C(C)C(=O)O)cc1 (centres unmarked) [IBU, Ibuprofen]
Ease of Falling Asleep ([1]; 5-point scale 0=did not fall asleep to 4=very easy, ibuprofen 400 mg): 2.10 B
Duration of Sleep ([1]; ibuprofen 400 mg): 2.68 B
Global Evaluation ([1]; ibuprofen 400 mg): 1.84 B
% Requiring Rescue ([1]; ibuprofen 400 mg): 45% B
Cumulative % Asleep at 60 minutes ([1]; ibuprofen 400 mg): 77.4 AB %
Sleep Latency (median) [1]: 25 min
Sleep Latency (median) ([1]; listed as ibuprofen): significantly better than the diphenhydramine and placebo groups
Time to Rescue (median) ([1]; ibuprofen 400 mg): >10 B hours
SPRID3 ([1]; ibuprofen 400 mg): 13.7 B
Ease of Falling Asleep - mean ([2]; Study B, 5-point scale 0-4, IBU 400 mg, DPH 50 mg): 1.81*
Global Assessment as a Pain Reliever [2, 8]: 2.30*
Global Assessment as a Sleep-Aid [2, 8]: 1.63*
Duration of Sleep - mean ([2]; Study B, 6-point categorical scale, IBU 400 mg, DPH 50 mg): 2.26*
PRID 90 minutes ([2]; Study B, 90 minutes post-dosing, IBU 400 mg, DPH 50 mg): 3.72*
PRID 120 minutes ([2]; Study B, 120 minutes post-dosing, IBU 400 mg, DPH 50 mg): 4.09*
% Requiring Rescue Medication for Any Reason ([2]; Study B, IBU 400 mg, DPH 50 mg): 48.3* %
SPRID2 ([2]; Study B, IBU 400 mg, DPH 50 mg): 7.63*
Sleep Latency (Observed) - median ([2]; Study B, IBU 400 mg, DPH 50 mg): 44.0* minutes
Time to Rescue Medication for Any Reason ([2]; Study B, IBU 400 mg, DPH 50 mg): >12* hours
Cumulative % Asleep at 60 minutes ([2]; Study B, IBU 400 mg, DPH 50 mg, soft gelatin capsules): 64.4^† %
% who required remed. ([2]; Table 7, Study AE-98-01): (48%)
Time to Remed. ([2]; Table 7, Study AE-98-01): >12.0 B hrs.
Global Eval - Sleep-Aid ([2]; Table 7, Study AE-98-01, 5-point scale 0-Poor to 4 = Excellent): 1.63 B
Duration of Sleep ([2]; Table 7, Study AE-98-01, 6-point scale 0 = <5 hrs to 5 = >9 hrs): 2.26 B
Ease of Falling Asleep ([3]; Study C, 5-point scale 0-4, IBU 400 mg, DPH 50 mg): 1.89^†
Global Assessment as a Pain Reliever [3, 9]: 2.51^†
Global Assessment as a Sleep-Aid [3, 9]: 1.57^†
Duration of Sleep ([3]; Study C, 6-point categorical scale, IBU 400 mg, DPH 50 mg, soft gelatin capsules): 1.98^†
PRID 90 minutes ([3]; Study C, 90 minutes post-dosing, IBU 400 mg, DPH 50 mg): 3.83^†,§
PRID 120 minutes ([3]; Study C, 120 minutes post-dosing, IBU 400 mg, DPH 50 mg): 4.13^†
% Requiring Rescue Medication for Any Reason ([3]; Study C, IBU 400 mg, DPH 50 mg): 42.3^† %
Cumulative % Asleep at 60 minutes ([3]; Study C, IBU 400 mg, DPH 50 mg): 75.6^† %
Time to Rescue Medication for Any Reason ([3]; Study C, IBU 400 mg, DPH 50 mg): >12^† hours
SPRID2 ([3]; Study C, over 0-2 hours, IBU 400 mg, DPH 50 mg): 7.81^†,§
% who required remed. ([3]; Table 7, Study AE-98-02): (42%)
Time to Remed. ([3]; Table 7, Study AE-98-02): >12.0 B hrs.
Global Eval - Sleep-Aid ([3]; Table 7, Study AE-98-02, 5-point scale 0-Poor to 4 = Excellent): 1.57 B
Duration of Sleep ([3]; Table 7, Study AE-98-02, 6-point scale 0 = <5 hrs to 5 = >9 hrs): 1.98 B
% who required remed. [4]: (45%)
% who required remed. ([4]; listed as ibuprofen): 45%
Time to Remed. ([4]; Table 7, Pooled Studies AE-98-01/02): >12.0 B hrs.
Duration of Sleep ([4]; Table 7, Pooled Studies AE-98-01/02, 6-point scale): 2.12 B
Global Eval - Sleep-Aid ([4]; Table 7, pooled studies, 5-point scale 0-Poor to 4 = Excellent): 1.60 B
subjects who slept for less than 5 hours ([4]; pooled data): 32%
effect on sleep (Gengo 1996) ([5]; healthy adults): no impact on sleep
effect on sleep (Murphy et al. 1994) ([5]; patients not suffering from pain): increase the number of awakenings and percentage of time spent in stage wake, and decrease sleep efficiency; also recorded: delay the onset of deeper stages of sleep
time to peak serum concentrations ([6]; suspensions): ≤ 1 h
time to peak serum concentrations ([6]; tablets): ≤ 2 h

CN(C)CCOC(c1ccccc1)c1ccccc1 [DPH, 2-(diphenylmethoxy)-N,N-dimethylethylamine]
Duration of Sleep ([1]; ibuprofen 400 mg): 0.23 A
Global Evaluation ([1]; ibuprofen 400 mg): 0.77 A
% Requiring Rescue ([1]; ibuprofen 400 mg): 97% B
Cumulative % Asleep at 60 minutes ([1]; ibuprofen 400 mg): 61.3 A %
Sleep Latency (median) [1]: 51.3 A
Time to Rescue (median) ([1]; ibuprofen 400 mg): 2.04 A hours
SPRID3 ([1]; ibuprofen 400 mg): 1.8 A
interaction between ibuprofen and diphenhydramine in the composition [7]: much more prone to interaction than the citrate form
